Key:
primary human T-cells [1] = test: IL2 secretion measurements (24 h, CD3-stimulated T-cells, PBS counter screen); type: cell-based; details: for Emax IL2 (% activation): CD3 condition, normalised to DMSO (neutral) and 20 μM reference compound A1 = 100%; for EC50: Homo sapiens, T-cell, CD3-stimulated primary human T-cells, IL2 secretion, fitted sigmoidal curve, read-out: Tcell IL2 CD3 EC50
Protocol: (§1) As readouts for T-cell activation, 1L2 secretion after 24 hours and proliferation after 5 days was measured. Increases in IL2 secretion and proliferation upon compound treatment were assessed as the % of the maximum of reference compound A1. WO 2016/139181 discloses reference compound A1 as example 70. As a counter screen and to make sure that no unwanted TCR-independent activation was triggered, PBS conditions were run for all compounds.
Expanded primary human T-cells were thawed and cultured in RPMI 1640 (Gibco, #61870-010)+5% human serum (HS, Sigma, #H3667)+1 mM Sodium Pyruvate (Gibco, #11360-039)+50 μM 2-mercaptoethanol (Gibco, #31350-010) and 1× Pen-Strep (Life Technologies, #15140122) medium at density of 2 Mio/ml for 3 hours in 5% CO2, 37° C. and 95% humidity. For coating of plates, […] or PBS++ with CD3 antibody (concentration depending on donor and determined by CD3 titrations) was added 100 μl/well to Poly-D Lysine coated 96-well plates. Plates were sealed and incubated at room temperature for 3 hours on a table-top rocking platform. After incubation, plates were washed once with PBS−− and filled with 40 μl/well culture medium only. Compounds were then added (see next section) to medium only plates. After 3 hours of culturing the T-cells, cells were filtered through a cell strainer (Miltenyi Biotech, #130-041-407), counted again and concentration was adjusted to 1.25 Mio/ml.
Cells were then seeded 80 μl/well to the 40 μl/well including dispensed compounds according to plate layout. By adding cells, compounds were further diluted 1:3, and resulting in 100 k cells/120 μl/well. After 24 hours 40 μl of supernatant was collected carefully from the top while not disturbing the cells and transferred into a round bottom 96 well plate. Collected and frozen supernatant was used for detection of IL2 using the IL-2 Human ProQuantum Immunoassay Kit (Invitrogen) or using the Human IL-2 ELISA Kit (Thermo Fisher).
(§2) Compounds were added in a 5 or 6 pt dose response with the Tecan D300e Digital Dispenser, all conditions 3 times more concentrated than the end-concentration, since cells are added afterwards (80 μl cells to 40 μl prepared medium with treatment). The DR was starting at 20 μM or 10 μM final top concentration and a dilution factor of 3.333. The positive control was the reference compound A1 that was added in a dose response as well, additionally to 3 wells of only 20 μM representing the positive stimulator control. All wells were normalized with DMSO to a final concentration of 0.6% (0.2% end-concentration).
The immunoassay is done following the manufacturer's manual (Invitrogen, #A35603). Additional information: For the immunoassay, MicroAmp™ EnduraPlate™ Optical 384-Well plates are used. Frozen supernatant is thawed and centrifuged for 5 minutes at 1000×g, both steps at 4° C. After centrifugation, required sample amount is taken from the top, and in a separate LightCycler V-bottom plate (working plate) diluted with assay dilution buffer, dilution factor depending on the PBS or CD3 condition but at least 1:3. IL-2 standard and blanks are prepared in the same V-bottom plate, standard with a range of 0.0128-5000 pg/ml (extended version). After preparation, 5 μl of sample dilutions or standard/blanks are transferred to the optical 384-well plate (assay plate) and the 10 μl reaction protocol is being followed. For measurement, the QuantStudio 12K Flex system is used. Raw data is extracted and IL-2 concentrations are calculated with the Thermo Fisher online app (apps.thermofisher.com/apps/proquantum).
ELISA is done following the manufacturer's manual (Thermo Fisher Scientific, #88-7025-88). Additional information: For the ELISA Nunc MaxiSorp 96 well plates are used. Frozen supernatant is thawed and centrifuged for 5 minutes at 1000×g, both steps at 4° C. […]

primary human T-cells [2] = test: Proliferation assay (5 days, CellTiter-Glo, CD3-stimulated T-cells); type: cell-based; details: for Emax proliferation (% activation): CD3 condition, normalised to DMSO (neutral) and 20 μM reference compound A1 = 100%; for EC50: Homo sapiens, T-cell, 120 h, CD3-stimulated primary human T-cells, 5 days, CellTiter-Glo, fitted sigmoidal curve, read-out: Tcell Proliferation CD3 EC50
Protocol: as §1
Expanded primary human T-cells are thawed and cultured in RPMI 1640 (Gibco, #61870-010)+5% human serum (HS, Sigma, #H3667)+1 mM Sodium Pyruvate (Gibco, #11360-039)+50 μM 2-mercaptoethanol (Gibco, #31350-010) and 1× Pen-Strep (Life Technologies, #15140122) medium at density of 2 Mio/ml for 3 hours in 5% CO2, 37° C. and 95% humidity. For coating of plates, PBS++ only or PBS++ with CD3 antibody (concentration depending on donor and determined by CD3 titrations) is added 100 μl/well to Poly-D Lysine coated 96-well plates. Plates are sealed and incubated at room temperature for 3 hours on a table-top rocking platform. After incubation, plates are washed once with PBS−− and filled with 40 μl/well culture medium only. Compounds are then added (see next section) to medium only plates. After 3 hours of culturing the T-cells, cells are filtered through a cell strainer (Miltenyi Biotech, #130-041-407), counted again and concentration is adjusted to 1.25 Mio/ml.
Cells are then seeded 80 μl/well to the 40 μl/well including dispensed compounds according to plate layout. By adding cells, compounds are further diluted 1:3, and resulting in 100 k cells/120 μl/well. After 48 hours 40 μl of supernatant is collected carefully from the top while not disturbing the cells. Cells are assessed for proliferation 5 days later by measuring […] using CellTiterGlo (Promega).
as §2
After 5 days, for detection of ATP which is directly proportional to the number of cells present per well, the CellTiter-Glo® 2.0 Reagent is used. After visual control for toxicity or precipitations of the tested compounds, the plates are equilibrated to room temperature for 45 minutes. CellTiter-Glo® 2.0 Reagent is equilibrated to room temperature as well. After equilibration, an equal amount of CellTiter-Glo reagent is added to the cells (80 μl/well) with an electronic multichannel pipette. Plates are placed on a rocking platform for 15 minutes at room temperature. After incubation, the bottom of the plates is sealed with backing tape. Luminescence is measured with PHERAstar FSX (interval time 0.5 sec, gain 3000, focal height 15 mm) and exported as CSV file for analysis in Genedata screener.
CD3 and PBS plates were analysed separately in Genedata Screener using Roche Normalization PCT_POS_CTRL with DMSO set as Neutral Control and 20 μM of the reference compound A1 set as Stimulator Control/100%.
For CD3 conditions EC50 and Emax of the fitted sigmoidal curve were reported. If no curve could be fitted, the EC50 was reported as blank field and the Emax was based on individual data points. […] Compounds which activate unstimulated cells (see IL2 measurements) or compounds which negatively affected viability were flagged.

SMILES	Emax IL2 (% activation) (primary human T-cells [1])	EC50 (primary human T-cells [1]) [nM]	Emax proliferation (% activation) (primary human T-cells [2])	EC50 (primary human T-cells [2]) [nM]
CC(C)(C)c1nnc(-c2ccc3c(c2)N(Cc2ccc(-c4nc(C(F)(F)F)no4)cc2)C(=O)[C@@H](N)CS3(=O)=O)o1 [Example 26, (3R)-3-amino-7-(5-tert-butyl-1,3,4-oxadiazol-2-yl)-1,1-dioxo-5-[[4-[3-(trifluoromethyl)-1,2,4-oxadiazol-5-yl]phenyl]methyl]-2,3-dihydro-1λ^6,5-benzothiazepin-4-one]	155	1600	184	302
CC(C)(C)c1nnc(-c2ccc3c(c2)N(Cc2ccc(-c4nc(C5CC5)no4)cc2)C(=O)[C@@H](N)CS3(=O)=O)o1 [Example 29, (3R)-3-amino-7-(5-tert-butyl-1,3,4-oxadiazol-2-yl)-5-[[4-(3-cyclopropyl-1,2,4-oxadiazol-5-yl)phenyl]methyl]-1,1-dioxo-2,3-dihydro-1λ^6,5-benzothiazepin-4-one]	156	956	208	844
CC(C)(C)c1nnc(-c2ccc3c(c2)N(Cc2ccc(-c4cc(C(F)(F)F)on4)cc2)C(=O)[C@@H](N)CS3(=O)=O)o1 [Example 30, (3R)-3-amino-7-(5-tert-butyl-1,3,4-oxadiazol-2-yl)-1,1-dioxo-5-[[4-[5-(trifluoromethyl)isoxazol-3-yl]phenyl]methyl]-2,3-dihydro-1λ^6,5-benzothiazepin-4-one]	117	3510	139	4360
CC(C)(C)c1nnc(-c2ccc3c(c2)N(Cc2ccc(-c4cc(C(F)(F)F)no4)cc2)C(=O)[C@@H](N)CS3(=O)=O)o1 [Example 31, (3R)-3-amino-7-(5-tert-butyl-1,3,4-oxadiazol-2-yl)-1,1-dioxo-5-[[4-[3-(trifluoromethyl)isoxazol-5-yl]phenyl]methyl]-2,3-dihydro-1λ^6,5-benzothiazepin-4-one]	133	906	83	349
CC(C)(C#N)c1nnc(-c2ccc3c(c2)N(Cc2ccc(-c4ccc(C(F)F)cn4)cc2)C(=O)[C@@H](N)CS3(=O)=O)o1 [Example 40, 2-[5-[(3R)-3-amino-5-[[4-[5-(difluoromethyl)-2-pyridyl]phenyl]methyl]-1,1,4-trioxo-2,3-dihydro-1λ^6,5-benzothiazepin-7-yl]-1,3,4-oxadiazol-2-yl]-2-methyl-propanenitrile]	105	3790	118	2480
N[C@H]1CS(=O)(=O)c2ccc(-c3nnc(C4(N)CCCCC4)o3)cc2N(Cc2ccc(-c3noc(C4CCC(F)(F)C4)n3)cc2)C1=O (stereo partly drawn) [Example 44, (3R)-3-amino-7-[5-(1-aminocyclohexyl)-1,3,4-oxadiazol-2-yl]-5-[[4-[5-(3,3-difluorocyclopentyl)-1,2,4-oxadiazol-3-yl]phenyl]methyl]-1,1-dioxo-2,3-dihydro-1λ^6,5-benzothiazepin-4-one]	112	1040	124	741
CC(C)(C#N)c1nnc(-c2ccc3c(c2)N(Cc2ccc(-c4nc(C5CC5)no4)cc2)C(=O)[C@@H](N)CS3(=O)=O)o1 [Example 139, 2-[5-[(3R)-3-amino-5-[[4-(3-cyclopropyl-1,2,4-oxadiazol-5-yl)phenyl]methyl]-1,1,4-trioxo-2,3-dihydro-1λ^6,5-benzothiazepin-7-yl]-1,3,4-oxadiazol-2-yl]-2-methyl-propanenitrile]			93	1020
N#CC1(c2nnc(-c3ccc4c(c3)N(Cc3ccc(-c5ccc(OC(F)(F)F)cn5)cc3)C(=O)[C@@H](N)CS4(=O)=O)o2)CCOC1 (stereo partly drawn) [Example 177, 3-[5-[(3R)-3-amino-1,1,4-trioxo-5-[[4-[5-(trifluoromethoxy)-2-pyridyl]phenyl]methyl]-2,3-dihydro-1λ^6,5-benzothiazepin-7-yl]-1,3,4-oxadiazol-2-yl]tetrahydrofuran-3-carbonitrile]			101	806
N[C@H]1CS(=O)(=O)c2ccc(-c3nnc(C4(N)CC(F)(F)C4)o3)cc2N(Cc2ccc(-c3ccc(OC(F)(F)F)cn3)cc2)C1=O [Example 179]			106	936
CN1CCC(C#N)(c2nnc(-c3ccc4c(c3)N(Cc3ccc(-c5ccc(OC(F)(F)F)cn5)cc3)C(=O)[C@@H](N)CS4(=O)=O)o2)CC1 [Example 180, 4-[5-[(3R)-3-amino-1,1,4-trioxo-5-[[4-[5-(trifluoromethoxy)-2-pyridyl]phenyl]methyl]-2,3-dihydro-1λ^6,5-benzothiazepin-7-yl]-1,3,4-oxadiazol-2-yl]-1-methyl-piperidine-4-carbonitrile]			102	651
